Molecular target: T1, Bcl-2 (Homo sapiens, UniProt P10415)
Assay: Homogeneous HTS assay for inhibitors of the Bcl-2 : Bak (72-87) BH3 domain interaction, fluorescence polarisation (2D-FIDA)
Assay type: binding
Conditions: fluorescence polarisation, fluorescent labelled Bak BH3 domain derived peptide; read-out: IC50 [μM] Bcl-2

T1 sequence (P10415 whole entry, species assumed, the tested form may be a part): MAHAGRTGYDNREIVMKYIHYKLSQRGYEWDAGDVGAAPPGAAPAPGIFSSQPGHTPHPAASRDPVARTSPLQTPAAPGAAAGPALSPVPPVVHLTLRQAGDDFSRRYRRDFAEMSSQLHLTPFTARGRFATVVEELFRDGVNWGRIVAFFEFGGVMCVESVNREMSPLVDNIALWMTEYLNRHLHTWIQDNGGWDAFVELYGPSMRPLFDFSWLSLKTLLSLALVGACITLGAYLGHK

Compound | IC50 [µM]
N=c1n(CCCOc2ccccc2)c2ccccc2n1Cc1ccc(N2CCN(Cc3ccccc3-c3ccccc3)CC2)cc1 [Compound 28, 1-[4-(4-Biphenyl-2-ylmethyl-piperazin-1-yl)-benzyl]-3-(3-phenoxy-propyl)-1,3-dihydro-benzoimidazol-2-ylideneamine] | < 10
N=c1n(CCCOc2ccc(F)cc2)c2ccccc2n1Cc1ccc(N2CCN(Cc3ccccc3-c3ccc(Cl)cc3)CC2)cc1 [Compound 24, 1-{4-[4-(4′-Chloro-biphenyl-2-ylmethyl)-piperazin-1-yl]-benzyl}-3-[3-(4-fluoro-phenoxy)-propyl]-1,3-dihydro-benzoimidazol-2-ylideneamine] | < 10
N=c1n(CCCOc2ccc(F)cc2)c2ccccc2n1Cc1ccc(N2CCN(Cc3ccc(Cl)cc3)CC2)cc1 [Compound 19, 1-{4-[4-(4-Chloro-benzyl)-piperazin-1-yl]-benzyl}-3-[3-(4-fluoro-phenoxy)-propyl]-1,3-dihydro-benzoimidazol-2-ylideneamine] | 11 to 100
N=c1n(CCCOc2ccc(F)cc2)c2ccccc2n1Cc1ccc(CNCC(=O)Nc2cccc(Cl)c2)cc1 [Compound 50, N-(3-Chloro-phenyl)-2-(4-{3-[3-(4-fluoro-phenoxy)-propyl]-2-imino-2,3-dihydro-benzoimidazol-1-ylmethyl}-benzylamino)-acetamide] | 11 to 100
N=c1n(CCCOc2cccc(C(=O)O)c2)c2ccccc2n1Cc1ccc(N2CCN(Cc3ccccc3-c3ccc(Cl)cc3)CC2)cc1 [Compound 74, 3-[3-(3-{4-[4-(4′-Chloro-biphenyl-2-ylmethyl)-piperazin-1-yl]-benzyl}-2-imino-2,3-dihydro-benzoimidazol-1-yl)-propoxy]-benzoic acid] | < 10
CCOC(=O)c1cccc(OCCCn2c(=N)n(Cc3ccc(N4CCN(Cc5ccccc5-c5ccccc5)CC4)cc3)c3ccccc32)c1 [Compound 69, 3-(3-{3-[4-(4-Biphenyl-2-ylmethyl-piperazin-1-yl)-benzyl]-2-imino-2,3-dihydro-benzoimidazol-1-yl}-propoxy)-benzoic acid ethyl ester] | < 10
N=c1n(CCCOc2ccc(F)cc2)c2ccccc2n1Cc1cccc(N2CCN(Cc3ccccc3-c3ccc(Cl)cc3)CC2)c1 [Compound 27, 1-{3-[4-(4′-Chloro-biphenyl-2-ylmethyl)-piperazin-1-yl]-benzyl}-3-[3-(4-fluoro-phenoxy)-propyl]-1,3-dihydro-benzoimidazol-2-ylideneamine] | < 10

Other lines, results leading:

IC50 [µM] | Compound
11 to 100 | N=c1n(CCCOc2ccc(F)cc2)c2ccccc2n1Cc1ccc(N2CCN(Cc3ccccc3)CC2)nc1 [Compound 53, 1-[6-(4-Benzyl-piperazin-1-yl)-pyridin-3-ylmethyl]-3-[3-(4-fluoro-phenoxy)-propyl]-1,3-dihydro-benzoimidazol-2-ylideneamine]
11 to 100 | N=c1n(Cc2ccccc2)c2ccccc2n1CC(O)COc1ccccc1 (stereo not drawn) [Compound 78, 1-(3-Benzyl-2-imino-2,3-dihydro-benzoimidazol-1-yl)-3-phenoxy-propan-2-ol]
11 to 100 | COc1ccccc1OCCn1c(=N)n(Cc2ccccc2)c2ccccc21 [Compound 95, 1-Benzyl-3-[2-(2-methoxy-phenoxy)-ethyl]-1,3-dihydro-benzoimidazol-2-ylideneamine]
11 to 100 | N=c1n(CCCOc2ccc(F)cc2)c2ccccc2n1Cc1csc(Cl)n1 [Compound 34, 1-(2-Chloro-thiazol-4-ylmethyl)-3-[3-(4-fluoro-phenoxy)-propyl]-1,3-dihydro-benzoimidazol-2-ylideneamine]
11 to 100 | CCCCCCn1c(=N)n(CC(O)COc2ccccc2OC)c2ccccc21 (stereo not drawn) [Compound 101, 1-(3-Hexyl-2-imino-2,3-dihydro-benzoimidazol-1-yl)-3-(2-methoxy-phenoxy)-propan-2-ol]
> 100 | CCCCn1c(=N)n(CC(O)COc2ccccc2OC)c2ccccc21 (stereo not drawn) [Compound 93, 1-(3-Butyl-2-imino-2,3-dihydro-benzoimidazol-1-yl)-3-(2-methoxy-phenoxy)-propan-2-ol]
< 10 | N=c1n(CCCOc2ccccc2)c2ccccc2n1Cc1cccc(N2CCN(Cc3ccccc3-c3ccccc3)CC2)c1 [Compound 29, 1-[3-(4-Biphenyl-2-ylmethyl-piperazin-1-yl)-benzyl]-3-(3-phenoxy-propyl)-1,3-dihydro-benzoimidazol-2-ylideneamine]
11 to 100 | N=c1n(CCCOc2ccc(F)cc2)c2ccccc2n1Cc1ccc(CN2CCN(c3ccccc3)CC2)cc1 [Compound 40, 1-[3-(4-Fluoro-phenoxy)-propyl]-3-[4-(4-phenyl-piperazin-1-ylmethyl)-benzyl]-1,3-dihydro-benzoimidazol-2-ylideneamine]
11 to 100 | N=c1n(Cc2cccc(Br)c2)c2ccccc2n1CC(O)COc1ccc(F)cc1 (stereo not drawn) [Compound 76, 1-[3-(3-Bromo-benzyl)-2-imino-2,3-dihydro-benzoimidazol-1-yl]-3-(4-fluoro-phenoxy)-propan-2-ol]
11 to 100 | N=c1n(CCCOc2ccccc2)c2ccccc2n1Cc1ccccc1F [Compound 96, 1-(2-Fluoro-benzyl)-3-(3-phenoxy-propyl)-1,3-dihydro-benzoimidazol-2-ylideneamine]

Molecular target: T1, Bcl-2
Assay: not given
Conditions: reported by Wang and co-workers; read-out: equilibrium binding constant KD to Bcl-2 protein; cited from earlier work

Compound | Kd [µM]
BH3 domain derived peptide ligand, sequence GQVGRQLAIIGDDINR, fluorescently labelled for the assay | ~0.2
